Measurements from patent US20230357312A1, “Borylated Di-Peptide Amino Acid compositions for use in Boron Neutron Capture Therapy and methods thereof” (TAE Life Sciences, priority 2021, published 2023).
Converted amounts (≈) assume the structure as drawn. Each block holds one molecule with its values, some of them ahead of it.

What was measured:
FaDu cells [1] = assay: Borylated dipeptide uptake in cancer cell lines (boron by ICP-OES); format: cell-based, human; conditions: 2.5 mM in HBSS, 37° C., 2 hrs; FaDu: high LAT1, PEPT1 negative
Experimental: (§1) The indicated cancer cell line (A) or FaDu cells (B) were harvested from culture and washed twice with PBS. Cell lines were adjusted to 2 million cells/ml in Hanks Balanced Salt Solution (HBSS). BPA or dipeptide boron compounds were added to cells at the final concentration of 2.5 mM in HBSS and the treated cells were incubated at 37° C. 5% CO2 for 2 hrs with shaking. The cells were collected by centrifugation; washed with cold PBS twice and reconstituted in 1 ml of cold PBS. Then, 50 µl of cell suspension was removed, pelleted, and lysed using RIPA buffer and the protein concentration was determined using BCA assay. The remaining 950 µl was used for boron compounds uptake measurements using ICP-OES.
(§2) To this end, 0.5 mL of concentrated nitric acid was added to each cell pellet in a 15 mL conical tube. The tubes were capped and placed in an oven set at 80° C. for 3 hours. 2 mL of water was added’ to each sample to bring the final volume up to 2.5 mL. The boron content in each sample was then measured on an Agilent 5110 ICP-OES using an Agilent SPS4 Autosampler for sample introduction.
The data was analyzed using Agilent’s ICP Expert Software, version 7.4.2.10790. Boron was measured axially at the 249.772 nm wavelength and the internal standard Beryllium was measured axially at the 313.042 nm wavelength. Beryllium was tee-ed into the solution at 1:5 the flowrate before introduction to the spray chamber. A standard curve using 1000, 100, 10, 1 and 0 ppb of boron was used to calculate the concentration of boron in each sample. Once determined, the boron measurement for each sample was normalized to protein content and final boron uptake results were expressed as ng boron/mg protein.
In another experiment, uptake of BPA and dipeptide His-BPA was carried out in FaDu, and ASPC-1 as described in FIG. 15. […] Accordingly, the data supports the finding that borylated dipeptides may be taken up efficiently in PEPT1 or other dipeptide transporter expressing cancers. See, FIG. 16(C).
In this experiment, the uptake of several dipeptide and dipeptide analogs was carried out in FaDu and ASPC-1 cells. Normalized boron uptake was determined as in FIG. 15. […] However, several dipeptides are still taken up in PEPT1 negative FaDu cells, although to a lower extent, which further confirms the proposition that an uptake mechanism does exist in FaDu cells for these dipeptides that is not PEPT1. See, FIG. 19.

FaDu cells [2] = assay: Dipeptide degradation to BPA by HPLC; format: in vitro ADME, human; conditions: for relative conversion into BPA in the presence of cells: 2.5 mM in HBSS, 4 hrs at 37° C., FaDu cells, RP-HPLC/MS semi-quantitative
Experimental: In this experiment, to investigate whether dipeptides are converted to BPA, which is then taken up through its cognate transporter, evaluation of whether dipeptides remained intact in the tissue culture media in the presence of absence of cancer cells was made using the following protocols. Briefly, FaDu cells were harvested and counted. The cell number was adjusted to 50×10^5 / mL in the HBSS tissue culture medium using 1 mL per well. The cells were incubated at 37° C. in the 5% CO2 overnight. At the end, the supernatants were aspirated, and cells were rinsed with 1 mL PBS once. Each test article was prepared at 2.5 mM concentration in HBSS medium, and 0.4 mL was added to cells. After 4 hrs. at 37° C. the supernatants were harvested and analyzed by RP HPLC using an ACQUITY BEH C18 column 2.1 × […] (Waters) equipped with a matching guard column equilibrated with 2% aqueous acetonitrile/0.1% formic acid mobile phase. The dipeptides were separated in the gradient of 90% acetonitrile/10% water/0.1% formic acid to 20% in 6 min and identified by UV225 nm. The masses were confirmed by an online QDA mass spectrometer. Breakdown of the original dipeptide was quantitated by comparing with the control - the same dipeptide incubated in the same fashion in the absence of cells. Stabilities of BPA-BPA, Ala-BPA, and BPA-Ala were compared, and the formation of BPA was measured semi-quantitatively by RP-HPLC/MS.

AsPC-1 cells = assay: Uptake inhibition by PEPT1 competitive inhibitor Gly-SAR; format: cell-based, human; conditions: 0.8 mM test compound, with and without Gly-SAR
Experimental: (§3) In this experiment, uptake of BPA and dipeptide His-BPA (0.8 mM of each) was carried out in FaDu and ASPC-1 in the presence and absence of the indicated concentrations of PEPT1 dipeptide transporter competitive inhibitor Gly-SAR. Normalized boron uptake was determined as in FIG. 15.

FaDu cells [3] = assay: as above; format: cell-based, human; conditions: 0.8 mM test compound, with and without Gly-SAR
Experimental: as §3

CT26 xenografts [4] = assay: BNCT study, 12 or 6 minute irradiation at 5 MW; format: in vivo, BALB/c mice; conditions: monitored to 22 days
Experimental: Following one (1) hour of treatment time, mice were irradiated for either 12 minutes (33(A)) or 6 minutes (33(B)) at the Kyoto University Research Reactor (Kyoto, Japan) 1 set at 5 megawatts. Data are the means ± SD of 3 mice per treatment group. Tumors were measured for growth out to 22 days.

CT26 xenografts [5] = assay: BNCT tumor regression study, 6 minute irradiation; format: in vivo, BALB/c mice; conditions: 6 minutes irradiation
Experimental: In this experiment, CT26 xenografts in BALB/c mice were dosed with 400 mg/kg of BPA or 900 mg/kg of His-BPA or BPA-BPA. Following one (1) hour treatment time, mice were irradiated for 6 minutes at the Kyoto University Research Reactor (Kyoto, Japan) 1 set at 5 megawatts. Data are the means ± SD of 3 mice per treatment group. Tumors were measured for growth out to 36 days and examined for tumor presence at 40 days. BPA and control groups were sacrificed at day 18 due to excessive tumor growth.

[6] = cited from earlier work
Solubility = format: physicochemical
CT26 = assay: Borylated dipeptide uptake in cancer cell lines (boron by ICP-OES); format: cell-based, mouse; conditions: 2.5 mM in HBSS, 37° C., 2 hrs
Experimental: as §1
as §2, with “2 mL of water was added’ to each sample to bring the final volume up to 2.5 mL.” left out
(§4) The data was analyzed using Agilent’s ICP Expert Software, version 7.4.2.10790. Boron was measured axially at the 249.772 nm wavelength and the internal standard Beryllium was measured axially at the 313.042 nm wavelength. […] Once determined, the boron measurement for each sample was normalized to protein content and final boron uptake results were expressed as ng boron/mg protein.

T98G = assay: as above; format: cell-based, human; conditions: 2.5 mM in HBSS, 37° C., 2 hrs
Experimental: as §1
as §2, with “2 mL of water was added’ to each sample to bring the final volume up to 2.5 mL.” left out
as §4

A431 = assay: as above; format: cell-based; conditions: 2.5 mM in HBSS, 37° C., 2 hrs
Experimental: as §1
as §2, with “2 mL of water was added’ to each sample to bring the final volume up to 2.5 mL.” left out
as §4

[7] = Pharmacokinetics (blood boron by ICP OES); format: in vivo, Balb/C non-tumor bearing male mice; conditions: tail vein injection
Experimental: In this experiment, pharmacokinetics of BPA-BPA was evaluated using the following protocols. Briefly, […] of each compound was injected in the tail vein of Balb/C non-tumor bearing male mice (5 mice per group). Blood was drawn at the following time points: 2, 5, 16, 30, 60, 120 and 240 minutes into EDTA-coated tubes. Boron concentration was measured using ICP OES following the digestion in concentrated nitric acid for 1 hour. The boron concentration was normalized to 1 mL of blood and plotted using GraphPad Prizm. The PK parameters (see, FIG. 22, Table) were obtain using PK Solver ver. 2.0 using compartmental analysis BPA-fructose was used as a reference substance.

[8] = tested on: FaDu, Detroit-562, MeWo, HCC-1954, A549 and AsPC-1 human cancer xenograft models; assay: Dose escalation of boron delivery, all tested xenograft models; format: in vivo, CB17 SCID mice; conditions: 1000 mg/kg, 120 minutes
Experimental: Tumors were harvested 120 minutes following treatment and boron content determined by ICP-OES. Data are the means ± SD of 5 mice per treatment group.

[9] = Pharmacokinetics of BPA-BPA
Excerpt: Table printed on a drawing sheet, Figure 28, continued. Title: Pharmacokinetics of BPA-BPA The patent's description of the figure: FIG. 28. Pharmacokinetics of BPA-BPA. First reader's note: Continuation of Figure 28; BPA-BPA is a borylated dipeptide, BPA Fructose is the comparator formulation.

intracranial tumor = conditions: BNCT, Japan, 1968; cited from earlier work

relative conversion into BPA in the presence of cells (FaDu cells [2]): Ala-BPA > BPA-BPA > BPA-Ala
Molecule: C[C@H](N)C(=O)N[C@@H](Cc1ccc(B(O)O)cc1)C(=O)O [Ala-BPA, Alanine-BPA]
boron uptake (compared in words) (FaDu cells [1]): to a lower extent than BPA

Molecule: N[C@@H](Cc1ccc(B(O)O)cc1)C(=O)O [BPA, 4-Borono-L-phenylalanine, reference compound]
boron uptake (compared in words) (FaDu cells [1]): to a much greater extent than His-BPA
effect of Gly-SAR on boron uptake (AsPC-1 cells): no effect
effect of Gly-SAR on boron uptake (FaDu cells [3]): no effect
tumor growth after BNCT (CT26 xenografts [4]; 200 mg/kg, 6 minutes irradiation at 5 MW): only modest tumor inhibition
tumor growth after BNCT (CT26 xenografts [4]; 200 mg/kg, 12 minutes irradiation at 5 MW): significant and similar growth inhibition, even regression
tumor growth after BNCT (CT26 xenografts [5]; 400 mg/kg, group sacrificed by day 18): continued tumor growth
solubility ([6]; L-BPA without fructose): 1700 µg/mL (≈ 8.13 mM)
concentration achieved with fructose formulation ([6]; fructose formulation, quasi-stable solution): 30000 µg/mL

relative conversion into BPA in the presence of cells (FaDu cells [2]): Ala-BPA > BPA-BPA > BPA-Ala
Molecule: CC(NC(=O)[C@@H](N)Cc1ccc(B(O)O)cc1)C(=O)O (stereo partly drawn) [BPA-Ala, BPA-Alanine]
boron uptake (compared in words) (FaDu cells [1]): to a lower extent than BPA

Molecule: N[C@@H](Cc1ccc(B(O)O)cc1)C(=O)N[C@@H](Cc1ccc(B(O)O)cc1)C(=O)O [BPA-BPA]
solubility (in words, compared to BPA) (Solubility): improved solubility
boron uptake compared to BPA (CT26): to a similar extent
boron uptake compared to BPA (T98G): to a similar extent
boron uptake (compared in words) (FaDu cells [1]): slightly lower than the LAT1 substrate BPA
boron uptake compared to BPA (A431): slightly lower than the LAT1 substrate BPA
relative conversion into BPA in the presence of cells (FaDu cells [2]): Ala-BPA > BPA-BPA > BPA-Ala
formation of BPA in the absence of cells (FaDu cells [2]; 2.5 mM, 4 hrs, media, no cells): Only trace amount of BPA
clearance (CL) compared to BPA [7]: remarkably similar
total drug exposure across time (AUC from zero to infinity) compared to BPA [7]: marginally lower
t½ beta (elimination phase) compared to BPA [7]: remarkably similar
pharmacokinetic profile ([7]; blood boron): bi-phasic pharmacokinetics
tumor boron delivery, rank among treatments [8]: greatest boron to all tested xenografts
tumor growth after BNCT (CT26 xenografts [4]; 800 mg/kg, 12 minutes irradiation at 5 MW): significant and similar growth inhibition, even regression
tumor growth after BNCT (CT26 xenografts [5]; 900 mg/kg, sustained out to 36 days): significant tumor regression
AUC (0 − t) [9]: 20463.9 µg·min/mL
AUC (0 − ∞) [9]: 29133.2 µg·min/mL
C0 [9]: 522.0 µg/mL
CL, mg/(μg/mL)/min [9]: 0.000113 mg/(μg/mL)/min
CMAX [9]: 362.83 µg/mL

Molecule: CC(C)C[C@H](N)C(=O)N[C@@H](Cc1ccc(B(O)O)cc1)C(=O)O [Leu-BPA, Leucine-BPA]
boron uptake (compared in words) (FaDu cells [1]): to a lower extent than BPA

Molecule: sodium borocaptate [BSH]
5-year survival rate (intracranial tumor): 58%
